Assay results published in the supplement of paper PMC3493320.

System: NCI-H295R
Experiment: IC50 (antiproliferative, ATP content)
Conditions: 48 h
How it was run: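 Serum-free ITS-supplemented DMEM was used to seed 1500 adrenocortical carcinoma cells per well in 1536-well plates, which were cultured overnight. Eight final concentrations of each library compound, from 0.6 nM to 46 µM, were added by pin transfer, followed by 48 h at 37 °C in 5% CO2 and a CellTiter-Glo ATP read after 20 min at room temperature. Luminescence was set against vehicle and positive-control wells, and the IC50 was obtained by logistic curve fitting. Any compound with no concentration response was entered as above the top dose.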

Row | SMILES | IC50 [µM]
1 | Cc1ccc(S(=O)(=O)O)cc1.NC1CCN(c2nc3c(cc2F)c(=O)c(C(=O)O)cn3-c2ccc(F)cc2F)C1 (stereo not drawn) | > 46
2 | CN(C)CCc1ccc(O)cc1 | > 46
3 | NCC[C@H](O)C(=O)N[C@@H]1C[C@H](N)[C@@H](O[C@H]2O[C@H](CN)[C@@H](O)[C@H](O)[C@H]2N)[C@H](O[C@@H]2O[C@H](CO)[C@H](O)[C@H]2O)[C@H]1O.O=S(=O)(O)O.O=S(=O)(O)O | > 46
4 | C#CCN(C)[C@H](C)Cc1ccccc1.Cl | > 46
5 | CC(NC(C)(C)C)C(=O)c1cccc(Cl)c1.Cl (stereo not drawn) | > 46
6 | COc1ccc2c(c1OC)C(=O)O[C@H]2[C@@H]1c2cc3c(cc2CCN1C)OCO3 | > 46
7 | Br.CC(Cc1ccc(O)cc1)NCC(O)c1cc(O)cc(O)c1 (stereo not drawn) | > 46
8 | CCN(CC)C(=O)N1CCN(C)CC1.O=C(O)CC(O)(CC(=O)O)C(=O)O | > 46
9 | CCCc1nc(C)c2c(=O)nc(-c3cc(S(=O)(=O)N4CCN(CC)CC4)ccc3OCC)[nH]n12.O=C(O)CC(O)(CC(=O)O)C(=O)O | > 46
10 | O.O.O.O.[Na+].[O-]c1ccccc1-c1ccccc1 | > 46
11 | O=C(O)c1cc(=O)c2ccccc2o1 | > 46
12 | O=C(OCc1ccccc1)c1ccc(O)cc1 | > 46
13 | CCCC(C)(COC(N)=O)COC(=O)NC1CC1 (stereo not drawn) | > 46
14 | CCCCC(CC)COS(=O)(=O)[O-].[Na+] (stereo not drawn) | > 46
15 | Cl.Cl.OCCN1CCN(CC/C=C2\c3ccccc3Sc3ccc(Cl)cc32)CC1 | > 46
16 | CC(=O)CC(c1ccccc1)c1c([O-])c2ccccc2oc1=O.[K+] (stereo not drawn) | > 46
17 | O=C1O[C@H](CO)[C@@H](O)[C@H](O)[C@H]1O | > 46
18 | CCc1cc(C(N)=S)ccn1 | > 46

Continued, values first:

Row | IC50 [µM] | SMILES
19 | > 46 | CC(=O)c1ccc2c(c1)N(CCCN1CCC(CCO)CC1)c1ccccc1S2
20 | > 46 | C[C@]12C[C@H](O)[C@H]3[C@@H](CCC4=CC(=O)CC[C@@]43C)[C@@H]1CC[C@H]2C(=O)CO
21 | > 46 | CNC1(C)C2CCC(C2)C1(C)C (stereo not drawn)
22 | > 46 | CCCCCCCCCCCCCCCC(=O)OC[C@H](COP(=O)([O-])OCC[N+](C)(C)C)OC(=O)CCCCCCCCCCCCCCC
23 | > 46 | CO[C@@]1(NC(=O)CSCC#N)C(=O)N2C(C(=O)[O-])=C(CSc3nnnn3C)CS[C@@H]21.[Na+]
24 | > 46 | Cl.Cl.NCCNc1cccc2ccccc12
25 | > 46 | Cl.OC(CCN1CCCCC1)(c1ccccc1)C1CCCCC1 (stereo not drawn)
26 | > 46 | S=C=Nc1ccc(N=C=S)cc1
27 | > 46 | Cl.Nc1ccc(/N=N/c2ccccc2)c(N)n1
28 | > 46 | C[C@]12CC[C@@H]3c4ccc(OC(=O)c5ccccc5)cc4CC[C@H]3[C@@H]1CC[C@@H]2O
29 | > 46 | N[C@@H](COP(=O)(O)O)C(=O)O
30 | > 46 | Cc1cccc(C)c1NC(=O)CN(CC(=O)O)CC(=O)O
31 | > 46 | CCCCOCCOCCOCc1cc2c(cc1CCC)OCO2
32 | > 46 | CN1CCCC(CN2c3ccccc3Sc3ccccc32)C1 (stereo not drawn)
33 | > 46 | CCCCNc1ccc(C(=O)OCCOCCOCCOCCOCCOCCOCCOCCOCCOC)cc1
34 | > 46 | CCCCC(CC)CN1CN(CC(CC)CCCC)CC(C)(N)C1 (stereo not drawn)
35 | > 46 | NC(=O)NNc1ccccc1
36 | > 46 | C[C@@](Cc1ccc(O)c(O)c1)(NN)C(=O)O
37 | > 46 | CCCCN1CCCC1C(=O)Nc1c(C)cc(C)cc1C (stereo not drawn)
38 | > 46 | CC(=O)NC(Cc1ccccc1)C(=O)O (stereo not drawn)
39 | > 46 | C[C@H]1[C@H]2CC[C@H]3[C@@H]4CC=C5C[C@@H](N(C)C)CC[C@]5(C)[C@H]4CC[C@]23CN1C
40 | > 46 | COc1ccc(/C=N/NC(=O)c2ccncc2)cc1OC
41 | > 46 | CN1CC(=O)NC1=N
42 | > 46 | Cc1cccc(Nc2ccccc2C(=O)O)c1C
43 | > 46 | CN(C)CCOC(c1ccccc1)c1ccccc1
